Test results as given in US20260232824A1, “ANTI-CD180 BINDING MOLECULES AND USES THEREOF” (Champions Oncology, Inc., priority 2023, published 2026).

How the values were obtained:
[1] = test system: panel of cancer cell lines; conditions: cited from earlier work
[2] = target: T1, CD19 (Homo sapiens, UniProt P15391); assay: CD19 expression versus in vitro activity of comparative ADC; format: cell-based; conditions: FIG. 27A
T1 construct: endogenous in cells
T1 sequence (P15391 20-556): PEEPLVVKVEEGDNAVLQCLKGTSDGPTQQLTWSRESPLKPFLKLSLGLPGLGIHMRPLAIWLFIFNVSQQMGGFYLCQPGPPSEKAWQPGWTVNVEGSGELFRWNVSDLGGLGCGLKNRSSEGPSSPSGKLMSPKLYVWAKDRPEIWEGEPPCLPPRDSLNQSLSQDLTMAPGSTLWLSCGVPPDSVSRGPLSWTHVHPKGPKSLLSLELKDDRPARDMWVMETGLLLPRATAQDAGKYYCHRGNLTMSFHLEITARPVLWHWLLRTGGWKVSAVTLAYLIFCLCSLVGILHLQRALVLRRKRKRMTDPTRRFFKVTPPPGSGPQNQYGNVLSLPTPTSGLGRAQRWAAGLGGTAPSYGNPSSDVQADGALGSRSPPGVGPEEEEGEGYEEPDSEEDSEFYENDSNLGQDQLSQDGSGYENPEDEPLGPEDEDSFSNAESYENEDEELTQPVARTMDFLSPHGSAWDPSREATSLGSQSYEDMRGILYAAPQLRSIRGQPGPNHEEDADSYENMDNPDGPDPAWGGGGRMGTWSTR

Row | Molecule | activity in a panel of cancer cell lines [1] | correlation of CD19 expression with in vitro activity [2]
1 | COc1cc2c(cc1OCCCCCOc1cc3c(cc1OC)C(=O)N1C=C(C)C[C@H]1C=N3)N=C[C@@H]1CC(C)=CN1C2=O [SG3199] | picomolar activity | –
2 | Lonca Tesirine: loncastuximab tesirine-lpyl | – | CD19 expression correlated with in vitro activity
